Source: patent publication US8497083B2, “Fructosyl amino acid oxidase” (priority 2009, dated 2013)
Changes are numbered by the printed parent chain.

What was measured:
[1] = target: T1, fructosyl amino acid oxidase from Pichia sp. N1-1 (N1-1 FAOD), wild type, SEQ ID NO: 2 (Pichia sp. N1-1, UniProt Q3L8U0); experiment: Dehydrogenase activity kinetics (mPMS/DCIP), N1-1 FAOD wild type; format: biochemical; details: mPMS/DCIP over 4AA/TODB/POD
T1 construct: 427 aa
T1 sequence (Q3L8U0 1-427): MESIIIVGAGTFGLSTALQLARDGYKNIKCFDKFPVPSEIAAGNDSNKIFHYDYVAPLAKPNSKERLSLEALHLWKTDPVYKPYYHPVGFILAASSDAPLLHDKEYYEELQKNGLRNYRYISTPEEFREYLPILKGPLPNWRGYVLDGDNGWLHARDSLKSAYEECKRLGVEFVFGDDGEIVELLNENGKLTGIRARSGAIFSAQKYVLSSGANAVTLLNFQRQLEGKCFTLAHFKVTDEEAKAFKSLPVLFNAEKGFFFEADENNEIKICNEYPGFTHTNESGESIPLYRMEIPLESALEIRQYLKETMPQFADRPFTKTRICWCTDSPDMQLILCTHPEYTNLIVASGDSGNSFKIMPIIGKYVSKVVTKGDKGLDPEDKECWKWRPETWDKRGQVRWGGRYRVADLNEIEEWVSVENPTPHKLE
From the text: (§1) As used herein, “dehydrogenase activity” is an enzymatic activity (Vmax) of the fructosyl amino acid oxidase to catalyze oxidation of fructosyl amino acid to generate 2-keto-D-glucose and the corresponding amino acid while utilizing an electron mediator other than oxygen as an electron acceptor. The dehydrogenase activity may be assayed by measuring the amount of electrons transferred to the mediator using, for example, one of mPMS/DCIP (1-methoxy-5-methylphenazinium methylsulfate/2,6-dichloroindophenol), cPES (trifluoro-acetate-1-(3-carboxy-propoxy)-5-ethyl-phenanzinium, NA BM31—1144 (N,N-bis-(hydroxyethyl)-3-methoxynitrosoaniline hydrochloride, NA BM31—1008 (N,N-bis-hydroxyethyl-4-nitrosoaniline) and N—N-4-dimethyl-nitrosoaniline.
(§2) As used herein in the context of the relative or quantitative activity, the dehydrogenase activity is specifically defined to be the mole amount of the substrate (fructosyl amino acid) oxidized per unit time measured by the amount of electrons transferred to the mediator at 25° C. in 10 mM PPB (pH 7.0), 0.6 mM DCIP, and 6 mM methoxy PMS (mPMS).
(§3) Escherichia coli BL21 (DE3) cells harboring expression vectors of N1-1 FAOD (SEQ ID NO: 2) mutants were grown in 150 ml of LB medium containing 50 μg/ml kanamycin at 37° C. […] The formation of quinoneimine dye was measured spectrophotometrically at 546 nm. […]

[2] = target: T2, fructosyl amino acid oxidase from Pichia sp. N1-1 (N1-1 FAOD, SEQ ID NO: 2) variant N47A (Pichia sp. N1-1, UniProt Q3L8U0, N47A); experiment: Dehydrogenase activity kinetics (mPMS/DCIP), N1-1 FAOD N47A mutant; format: biochemical; details: mPMS/DCIP over 4AA/TODB/POD
T2 construct: crude and purified
T2 sequence (Q3L8U0 1-427 N47A): T1 sequence (Q3L8U0 1-427) with N47A
From the text: as §1, §2, §3

CC(C)[C@H](NCC1(O)OC[C@@H](O)[C@@H](O)[C@@H]1O)C(=O)O (stereo partly shown) [f-αVal, fructosyl valine]
B/A (Vmax dehydrogenase/Vmax oxidase) ([1]; crude preparation): 1.2
B/A (Vmax dehydrogenase/Vmax oxidase) ([1]; purified enzyme): 1.1
B/A (Vmax dehydrogenase/Vmax oxidase) ([2]; crude preparation): 7.5
B/A (Vmax dehydrogenase/Vmax oxidase) ([2]; purified enzyme): 4.3
